# According to patent publication US9346812B2, “Substituted pyrrolopyrimidine compounds, compositions thereof, and methods of treatment therewith” (Signal Pharmaceutical LLC, priority 2013, dated 2016):
# Tested on: CAL51 cell proliferation
# Assay: Cell Titer Glo Proliferation Assay (CAL51)
# Assay type: cell-based, human
# Conditions: Homo sapiens, CAL-51; CAL51 cell proliferation, 72 h, Cell Titer Glo luminescence; read-out: Act. Level
# Method in brief: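 Viability is measured by CellTiter-Glo luminescence after 72 h of compound exposure. CAL51 cells were seeded in growth medium with 10% FBS and 2 mM glutamine, cultured overnight, then dosed with compound dilutions, vehicle held at 0.2% DMSO.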
row,Compound,IC50
1,"COc1cc(C(=O)N(C)CCO)ccc1Nc1nc(OC2CCCC2)c2c(-c3ccc4nc(C)oc4c3)c[nH]c2n1 [Example 233, 4-(4-(cyclopentyloxy)-5-(2-methylbenzo[d]oxazol-6-yl)-7H-pyrrolo[2,3-d]pyrimidin-2-ylamino)-N-(2-hydroxyethyl)-3-methoxy-N-methylbenzamide]",< 100 nM
2,"COc1cc(C(=O)NC(C)(C)CO)ccc1Nc1nc(OC2CCCC2)c2c(-c3ccc4nc(C)oc4c3)c[nH]c2n1 [Example 234, 4-(4-(cyclopentyloxy)-5-(2-methylbenzo[d]oxazol-6-yl)-7H-pyrrolo[2,3-d]pyrimidin-2-ylamino)-N-(1-hydroxy-2-methylpropan-2-yl)-3-methoxybenzamide]",100 to 400 nM
3,"Cc1nc2ccc(-c3c[nH]c4nc(Nc5ccc6c(c5)CNC6=O)nc(OC5CCCC5)c34)cc2o1 [Example 235, 5-(4-(cyclopentyloxy)-5-(2-methylbenzo[d]oxazol-6-yl)-7H-pyrrolo[2,3-d]pyrimidin-2-ylamino)isoindolin-1-one]",< 100 nM
4,"CNC(=O)c1ccc(Nc2nc(OC3CCOCC3)c3c(-c4ccnc(NC(C)=O)c4)c[nH]c3n2)c(OC)c1 [Example 236, 4-(5-(2-acetamidopyridin-4-yl)-4-(tetrahydro-2H-pyran-4-yloxy)-7H-pyrrolo[2,3-d]pyrimidin-2-ylamino)-3-methoxy-N-methylbenzamide]",< 100 nM
5,"COc1cc(C(=O)NC2CC(O)C2)ccc1Nc1nc(OC2CCCC2)c2c(-c3ccc4nc(C)oc4c3)c[nH]c2n1 (stereo not shown) [Example 238, 4-(4-(cyclopentyloxy)-5-(2-methylbenzo[d]oxazol-6-yl)-7H-pyrrolo[2,3-d]pyrimidin-2-ylamino)-N-((1s,3s)-3-hydroxycyclobutyl)-3-methoxybenzamide]",< 100 nM
6,"COc1cc(C(=O)N[C@H]2C[C@H](O)C2)ccc1Nc1nc(OC2CCCC2)c2c(-c3ccc4nc(C)oc4c3)c[nH]c2n1 [Example 239, 4-(4-(cyclopentyloxy)-5-(2-methylbenzo[d]oxazol-6-yl)-7H-pyrrolo[2,3-d]pyrimidin-2-ylamino)-N-((1r,3r)-3-hydroxycyclobutyl)-3-methoxybenzamide]",< 100 nM
7,"COc1cc(C(=O)NC[C@H](C)O)ccc1Nc1nc(OC2CCCC2)c2c(-c3ccc4nc(C)oc4c3)c[nH]c2n1 [Example 240, (S)-4-(4-(cyclopentyloxy)-5-(2-methylbenzo[d]oxazol-6-yl)-7H-pyrrolo[2,3-d]pyrimidin-2-ylamino)-N-(2-hydroxypropyl)-3-methoxybenzamide]",100 to 400 nM
8,"COc1cc(C(=O)N2CCC2)ccc1Nc1nc(OC2CCCC2)c2c(-c3ccc4nc(C)oc4c3)c[nH]c2n1 [Example 241, azetidin-1-yl(4-(4-(cyclopentyloxy)-5-(2-methylbenzo[d]oxazol-6-yl)-7H-pyrrolo[2,3-d]pyrimidin-2-ylamino)-3-methoxyphenyl) methanone]",< 100 nM
9,"COc1cc(C(=O)NC[C@H]2CCCO2)ccc1Nc1nc(OC2CCCC2)c2c(-c3ccc4nc(C)oc4c3)c[nH]c2n1 [Example 242, (R)-4-(4-(cyclopentyloxy)-5-(2-methylbenzo[d]oxazol-6-yl)-7H-pyrrolo[2,3-d]pyrimidin-2-ylamino)-3-methoxy-N-((tetrahydrofuran-2-yl)methyl)benzamide]",100 to 400 nM
10,"COc1cc(C(=O)NCC2CCOCC2)ccc1Nc1nc(OC2CCCC2)c2c(-c3ccc4nc(C)oc4c3)c[nH]c2n1 [Example 243, 4-(4-(cyclopentyloxy)-5-(2-methylbenzo[d]oxazol-6-yl)-7H-pyrrolo[2,3-d]pyrimidin-2-ylamino)-3-methoxy-N-((tetrahydro-2H-pyran-4-yl)methyl)benzamide]",100 to 400 nM
11,"Cc1nc2ccc(-c3c[nH]c4nc(Nc5ccc6c(c5)CN(C)C6=O)nc(OC5CCCC5)c34)cc2o1 [Example 244, 5-(4-(cyclopentyloxy)-5-(2-methylbenzo[d]oxazol-6-yl)-7H-pyrrolo[2,3-d]pyrimidin-2-ylamino)-2-methylisoindolin-1-one]",< 100 nM
12,"CNC(=O)c1ccc(Nc2nc(OC3CCCC3)c3c(-c4ccc(C(=N)N)cc4)c[nH]c3n2)c(OC)c1 [Example 245, 4-(5-(4-carbamimidoylphenyl)-4-(cyclopentyloxy)-7H-pyrrolo[2,3-d]pyrimidin-2-ylamino)-3-methoxy-N-methylbenzamide]",1000 to 10000 nM
13,"CNC(=O)c1ccc(Nc2nc(OC(C)(C)C)c3c(-c4ccc5nc(C)oc5c4)c[nH]c3n2)c(OC)c1 [Example 246, 4-(4-tert-butoxy-5-(2-methylbenzo[d]oxazol-6-yl)-7H-pyrrolo[2,3-d]pyrimidin-2-ylamino)-3-methoxy-N-methylbenzamide]",< 100 nM
14,"COc1cc(NC(C)=O)ccc1Nc1nc(OC2CCCC2)c2c(-c3ccc4nc(C)oc4c3)c[nH]c2n1 [Example 247, N-(4-(4-(cyclopentyloxy)-5-(2-methylbenzo[d]oxazol-6-yl)-7H-pyrrolo[2,3-d]pyrimidin-2-ylamino)-3-methoxyphenyl) acetamide]",100 to 400 nM
15,"COc1cc(C(=O)N(C)CCC#N)ccc1Nc1nc(OC2CCCC2)c2c(-c3ccc4nc(C)oc4c3)c[nH]c2n1 [Example 248, N-(2-cyanoethyl)-4-(4-(cyclo-pentyloxy)-5-(2-methylbenzo[d]oxazol-6-yl)-7H-pyrrolo[2,3-d]pyrimidin-2-ylamino)-3-methoxy-N-methylbenzamide]",< 100 nM
16,"COc1cc(C(=O)N2CCCC2)ccc1Nc1nc(OC2CCCC2)c2c(-c3ccc4nc(C)oc4c3)c[nH]c2n1 [Example 249, (4-(4-(cyclopentyloxy)-5-(2-methylbenzo[d]oxazol-6-yl)-7H-pyrrolo[2,3-d]pyrimidin-2-ylamino)-3-methoxyphenyl) (pyrrolidin-1-yl)methanone]",100 to 400 nM
17,"COc1cc(C(=O)N(C)C2CCOCC2)ccc1Nc1nc(OC2CCCC2)c2c(-c3ccc4nc(C)oc4c3)c[nH]c2n1 [Example 250, 4-(4-(cyclopentyloxy)-5-(2-methylbenzo[d]oxazol-6-yl)-7H-pyrrolo[2,3-d]pyrimidin-2-ylamino)-3-methoxy-N-methyl-N-(tetrahydro-2H-pyran-4-yl)benzamide]",100 to 400 nM
18,"COc1cc(C(=O)N(CCO)C2CC2)ccc1Nc1nc(OC2CCCC2)c2c(-c3ccc4nc(C)oc4c3)c[nH]c2n1 [Example 251, 4-(4-(cyclopentyloxy)-5-(2-methylbenzo[d]oxazol-6-yl)-7H-pyrrolo[2,3-d]pyrimidin-2-ylamino)-N-cyclopropyl-N-(2-hydroxyethyl)-3-methoxybenzamide]",100 to 400 nM
19,"COc1cc(C(=O)NC2CCOCC2)ccc1Nc1nc(OC2CCCC2)c2c(-c3ccc4nc(C)oc4c3)c[nH]c2n1 [Example 252, 4-(4-(cyclopentyloxy)-5-(2-methylbenzo[d]oxazol-6-yl)-7H-pyrrolo[2,3-d]pyrimidin-2-ylamino)-3-methoxy-N-(tetrahydro-2H-pyran-4-yl)benzamide]",100 to 400 nM
20,"COc1cc(C(=O)N[C@@H]2CCC[C@@H]2O)ccc1Nc1nc(OC2CCCC2)c2c(-c3ccc4nc(C)oc4c3)c[nH]c2n1 [Example 253, 4-(4-(cyclopentyloxy)-5-(2-methylbenzo[d]oxazol-6-yl)-7H-pyrrolo[2,3-d]pyrimidin-2-ylamino)-N-((1R,2S)-2-hydroxycyclopentyl)-3-methoxybenzamide]",100 to 400 nM
21,"COc1cc(C(=O)NC[C@@H]2CCCO2)ccc1Nc1nc(OC2CCCC2)c2c(-c3ccc4nc(C)oc4c3)c[nH]c2n1 [Example 254, (S)-4-(4-(cyclopentyloxy)-5-(2-methylbenzo[d]oxazol-6-yl)-7H-pyrrolo[2,3-d]pyrimidin-2-ylamino)-3-methoxy-N-((tetrahydrofuran-2-yl)methyl) benzamide]",100 to 400 nM
22,"COc1cc(C(=O)NC2COC2)ccc1Nc1nc(OC2CCCC2)c2c(-c3ccc4nc(C)oc4c3)c[nH]c2n1 [Example 255, 4-(4-(cyclopentyloxy)-5-(2-methylbenzo[d]oxazol-6-yl)-7H-pyrrolo[2,3-d]pyrimidin-2-ylamino)-3-methoxy-N-(oxetan-3-yl)benzamide]",100 to 400 nM
23,"COc1cc(C(=O)NCCF)ccc1Nc1nc(OC2CCCC2)c2c(-c3ccc4nc(C)oc4c3)c[nH]c2n1 [Example 256, 4-(4-(cyclopentyloxy)-5-(2-methylbenzo[d]oxazol-6-yl)-7H-pyrrolo[2,3-d]pyrimidin-2-ylamino)-N-(2-fluoroethyl)-3-methoxybenzamide]",100 to 400 nM
24,"COc1cc(C(=O)N(C)CCC(N)=O)ccc1Nc1nc(OC2CCCC2)c2c(-c3ccc4nc(C)oc4c3)c[nH]c2n1 [Example 257, N-(3-amino-3-oxopropyl)-4-(4-(cyclopentyloxy)-5-(2-methylbenzo[d]oxazol-6-yl)-7H-pyrrolo[2,3-d]pyrimidin-2-ylamino)-3-methoxy-N-methylbenzamide]",< 100 nM
25,"CNC(=O)c1ccc(-c2c[nH]c3nc(Nc4ccc(C(=O)NCCO)cc4OC)nc(OC4CCCC4)c23)cc1 [Example 258, 4-(4-(cyclopentyloxy)-5-(4-(methylcarbamoyl)phenyl)-7H-pyrrolo[2,3-d]pyrimidin-2-ylamino)-N-(2-hydroxyethyl)-3-methoxybenzamide]",< 100 nM
26,"COc1cc(C(=O)N2CCN(C)CC2)ccc1Nc1nc(OC2CCCC2)c2c(-c3ccc4nc(C)oc4c3)c[nH]c2n1 [Example 259, (4-(4-(cyclopentyloxy)-5-(2-methylbenzo[d]oxazol-6-yl)-7H-pyrrolo[2,3-d]pyrimidin-2-ylamino)-3-methoxyphenyl)(4-methylpiperazin-1-yl)methanone]",< 100 nM
27,"CNC(=O)c1ccc(Nc2nc(OC3CCCC3)c3c(-c4ccc5nonc5c4)c[nH]c3n2)c(OC)c1 [Example 260, 4-(5-(benzo[c][1,2,5]oxadiazol-5-yl)-4-(cyclopentyloxy)-7H-pyrrolo[2,3-d]pyrimidin-2-ylamino)-3-methoxy-N-methylbenzamide]",1000 to 10000 nM
28,"COc1cc(S(C)(=O)=O)c(F)cc1Nc1nc(OC2CCCC2)c2c(-c3ccc4nc(C)oc4c3)c[nH]c2n1 [Example 261, 4-(cyclopentyloxy)-N-(5-fluoro-2-methoxy-4-(methylsulfonyl)phenyl)-5-(2-methylbenzo[d]oxazol-6-yl)-7H-pyrrolo[2,3-d] pyrimidin-2-amine]",100 to 400 nM
